In ChEMBL document CHEMBL1649366, “Self-organizing molecular field analysis on human β-secretase nonpeptide inhibitors: 5, 5-disubstituted aminohydantoins” (Eur J Med Chem, 2011):

The compounds below were run against Beta-secretase 1 (Homo sapiens, UniProt P56817) (assay: Inhibition of human BACE1).
Beta-secretase 1, sequence (P56817 whole entry): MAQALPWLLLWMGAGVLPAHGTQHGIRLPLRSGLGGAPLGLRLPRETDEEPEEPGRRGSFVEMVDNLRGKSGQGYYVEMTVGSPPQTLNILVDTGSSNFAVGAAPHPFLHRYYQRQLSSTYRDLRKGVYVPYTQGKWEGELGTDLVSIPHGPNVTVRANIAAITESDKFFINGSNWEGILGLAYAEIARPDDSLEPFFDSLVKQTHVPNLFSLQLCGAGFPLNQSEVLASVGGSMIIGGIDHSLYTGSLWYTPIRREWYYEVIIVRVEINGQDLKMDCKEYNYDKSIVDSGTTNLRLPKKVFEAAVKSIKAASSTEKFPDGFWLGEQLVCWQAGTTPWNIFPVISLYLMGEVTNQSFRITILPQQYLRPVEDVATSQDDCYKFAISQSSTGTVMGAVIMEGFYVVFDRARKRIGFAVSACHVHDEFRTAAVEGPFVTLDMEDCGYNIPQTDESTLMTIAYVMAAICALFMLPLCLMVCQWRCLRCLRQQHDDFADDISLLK

| Structure (SMILES) | IC50 |
| --- | --- |
| CCN1C(=O)C(c2ccccc2)(c2ccccc2)N=C1N | 8 µM |
| NC1=NC(c2ccccc2)(c2ccccc2)C(=O)N1 | 20 µM |
| NC1=NC(c2ccccc2)(C2CCCCC2)C(=O)N1CCCO (centres undefined) | 4.8 µM |
| CCc1cc(C2(c3cccc(-c4cncnc4)c3)N=C(N)N(C)C2=O)cc(CC)n1 (centres undefined) | 0.03 µM |
